Measurements as given in US20110136897A1, “TOLL-LIKE RECEPTOR 9 AGONISTS FOR THE TREATMENT OF ANXIETY-RELATED DISORDERS AND INFLAMMATORY DISORDERS” (YISSUM RESEARCH DEVELOPMENT COMPANY OF THE HEBREW …, priority 2008, published 2011).
“Also recorded” adds a separate entry of the source.

Columns and labels:
FVB/N mice = experiment: Predator (cat) odor stress paradigm, elevated plus maze (EPM) and acoustic startle response (ASR) one week post-exposure; assay type: in vivo, mouse
RAW264.7 cells [1] = experiment: HSP90β mRNA RT-PCR in RAW264.7 cells; assay type: cell-based, mouse; conditions: 24 hour incubation
Protocol: Cell cultures: The mouse macrophage cell line RAW 264.7 (ATCC, MD) was cultured in Dulbecco's modified Eagle's medium (DMEM) (Biological Industries, Israel) supplemented with 10% heat-inactivated fetal bovine serum (Biological Industries, Israel), 100 μg/ml streptomycin (Sigma), 100 U/ml penicillin (Sigma) and 2 mM 1-glutamine (Biological Industries, Israel) at 37° C. in a humidified atmosphere with 5% CO2.
Real-time PCR (RT-PCR): RAW264.7 cells and spleen were used for RT-PCR. 1×10^6 RAW264.7 cells were grown in 2 ml medium in 6 wells plates until 80% confluence was obtained. Total RNA was extracted using the RNeasy kit (Qiagen, CA, USA). Spleen and brain tissues' RNA was extracted using the RNeasy Tissue Mini Kit (Qiagen, Germany). In all cases, total RNA was reverse-transcribed (200 ng) using Impromp-II reverse transcriptase (Promega, WI, USA) according to manufacturer's instructions. RT-PCR was performed using Power SYBR®Green PCR Master Mix (Applied Biosystems, UK) in a 7900 HT Sequence Detection System (Applied Biosystems, CA). Quantification was assessed at the logarithmic phase of the PCR reaction. The PCR annealing temperature was 60° C. for all primer pairs.

RAW264.7 cells [2] = experiment: RT-PCR of inflammatory genes in RAW264.7 cells (Table 2); assay type: cell-based, mouse
Protocol: Real-time PCR (RT-PCR): Brains were dissected and tissues stored frozen at −70° C. until use. Hippocampal RNA was extracted using the RNeasy Tissue Mini Kit (Qiagen, Germany). Total RNA was reverse-transcribed (200 ng) using Impromp-II reverse transcriptase (Promega, Madison, Wis.) as instructed. RT-PCR was performed using Power SYBR®Green PCR Master Mix (Applied Biosystems, UK) in a 7900 HT Sequence Detection System (Applied Biosystems, Foster City, Calif.). Quantification was assessed at the logarithmic phase of the PCR reaction. The PCR annealing temperature was 60° C. for all primer pairs. GAPDH was used as a house-keeping gene.
Shown are fold differences in RT-PCR products of RAW264.7 cells incubated with the noted doses of mEN101 or ODN1826. Note that ODN1826 affects IL1α, -1β, -6, -10, -12 and ICAM-1 gene expression at concentrations as low as 10 nM, whereas considerably higher doses of mEN101 are needed to attain similar effects. Nevertheless, mEN101 affects inflammatory gene expression even at 10 nM. 1 μg/ml LPS was used as positive control. (n=3, p<0.05 Mann-Whitney U-test compared to untreated controls, for all the data shown).

RAW264.7 cells [3] = experiment: LPS-induced NO production with or without corticosterone after ODN1826 pre-incubation; assay type: cell-based, mouse; conditions: 24 hours before LPS 1 μg/ml with corticosterone
Protocol: Determination of nitric oxygen (NO) production: The nitrite concentration in the medium was measured as an indicator of NO production according to the Griess reaction. 1×10^5 RAW264.7 cells were grown in 0.5 ml medium in 48-wells plate until 80% confluence was obtained. […] (1% sulfanilamide, 0.1% naphthylethylenediamine dihydrochloride, 5% H3PO4). Absorbance was read at 540 nm after 10 minutes using SPECTRAFluor Plus spectrophotometer (TECAN, UK).
In order to study the functional effects of TLR9 activation on GR signaling, RAW264.7 cells were incubated with varying concentrations of ODN1826 (SEQ ID NO: 2) for 24 hours and the medium was replaced with one containing LPS (1 μg/ml) with or without […] corticosterone (CORT) for an additional 24 hours. As expected, CORT blocked lipopolysaccharide (LPS)-induced NO production.

## 5′-TCCATGACGTTCCTGACGTT-3′ [ODN1826, reference compound]
FVB/N mice; 0.5 μg/kg i.p. daily for 4 days, tested day 7, compared to stressed mice
  stress-induced anxiety scores (EPM score, startle response, habituation to startle): diminished stress-induced anxiety scores; also recorded: lower EPM scores
FVB/N mice; low dose (0.5 μg/kg), compared to saline injected stressed mice
  anxiety index (AI): decreased it
RAW264.7 cells [1]
  HSP90β mRNA levels: significantly increased HSP90β mRNA levels
RAW264.7 cells [2]; 10 nM
  ICAM-1 RT-PCR product: −3.57 log2 from NT
  IL1a RT-PCR product: 4.18 log2 from NT
  IL1b RT-PCR product: 4.40 log2 from NT
  IL6 RT-PCR product: 3.57 log2 from NT
  IL10 RT-PCR product: 3.74 log2 from NT
  IL12 RT-PCR product: 3.57 log2 from NT
RAW264.7 cells [2]; 100 nM
  ICAM-1 RT-PCR product: −3.14 log2 from NT
  IL1a RT-PCR product: 5.33 log2 from NT
  IL1b RT-PCR product: 5.63 log2 from NT
  IL6 RT-PCR product: 3.71 log2 from NT
  IL10 RT-PCR product: 4.28 log2 from NT
  IL12 RT-PCR product: 4.28 log2 from NT
RAW264.7 cells [3]; higher doses (10-100 nM)
  effect on LPS-induced NO production / cell activation: increased cell activation
RAW264.7 cells [3]; low doses (0.01-1 nM)
  effect on CORT inhibition of LPS-induced NO production: potentiated CORT anti-inflammatory effect
